Results on 4 compounds are retold here after patent US20230167414A1, “METHODS FOR ISOLATING AND CULTURING TUMOR CELLS” (Georgetown University, priority 2020, published 2023).

In one assay the test system is the cells. The experiment in a line: Culture conditions described herein with upstream/downstream ROCK pathway inhibitor in place of a ROCK inhibitor. The assay is classed as cell-based. Conditions: used in the culture conditions in place of a ROCK inhibitor. The source says:
As used herein, inhibiting ROCK can mean to reduce the activity, function, or expression of at least one of ROCK1 or ROCK2. […] In general, ROCK phosphorylates LEVI kinase and myosin light chain (MLC) phosphatase after being activated through binding of GTP-bound Rho. One embodiment of the present invention thus involves blocking the upstream pathway of ROCK1 and/or ROCK2, for example GTP-bound Rho, such that ROCK1 and/or ROCK2 is not activated or its activity is reduced over untreated cells. Other upstream effectors include, but are not limited to, integrins, growth factor receptors, including but not limited to, TGF-beta and EGFR, cadherins, G protein coupled receptors and the like. Another embodiment of the present invention thus involves blocking the activity, function, or expression of downstream effector molecules of activated ROCK1 and/or ROCK2 such that ROCK1 and/or ROCK2 cannot propagate any signal or can only propagate a reduced signal over untreated cells. Downstream effectors include, but are not limited to, myosin phosphatase-targeting protein (MYPT), vimentin, LIMK, myosin light chain kinase, NHE1, cofilin, Myosin II and the like.

A further assay has as its system airway epithelial cells. To be noted: cited from earlier work.

In the case of `Cc1ccc2c(c1)C(=O)C1(O)CCN(c3ccccc3)C1=N2` (stereo not shown) [blebbistatin], the “effect on cells (differentiation / proliferation in vitro)” value in the assay with the cells was “allow the cells to bypass differentiation and allow proliferation in vitro”.
Consider `O=S(=O)(c1cccc2cnccc12)N1CCCNCC1` [HA 1077, fasudil], for which the “effect of inhibition on airway epithelial cells” value in the assay with airway epithelial cells was “induces membrane ruffling, loss of actin stress fibers and apoptosis”.
For C3 transferase, the “effect on cells (differentiation / proliferation in vitro)” value in the assay on the cells was “allow the cells to bypass differentiation and allow proliferation in vitro”.
For the compound `C[C@@H](N)[C@H]1CC[C@H](C(=O)Nc2ccncc2)CC1` [Y-27632], the “effect of inhibition on airway epithelial cells” value with airway epithelial cells was “induces membrane ruffling, loss of actin stress fibers and apoptosis”.
